The source of these data is PubChem BioAssay (NCI).

Molecules are shown by their SMILES.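 Step 1: Grow cells in 96-well plates. Step 2: Expose to compound for 48 hours at 5 concentrations. Step 3: Interpolate endpoints linearly; if unreached, use highest concentration. GI50: concentration for 50% inhibition of growth. Definition used: TGI = concentration required for complete inhibition of growth.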

Some test systems named below: HOP-62 NSCLC; M14 melanoma; ACHN renal; NCI-H23 lung; HCT-116 colon; KM12 colon; SF-539 CNS; RXF 393 renal; SK-OV-3 ovarian; NCI/ADR-RES ovarian.
Assay in all cases: DTP human tumour cell line panel, 48 h

In the case of `Nc1nc(Cl)cc(NCCCCCNc2cc(Cl)nc(N)n2)n1`, the TGI with HOP-62 NSCLC is over 100 µM; with M14 melanoma, over 100 µM; in the assay with ACHN renal, 52.2 µM; in the assay on NCI-H23 lung, over 100 µM; in the assay with HCT-116 colon, over 100 µM; in the assay on KM12 colon, over 100 µM. Further, the TGI with SF-539 CNS, in the assay with RXF 393 renal and with SK-OV-3 ovarian was over 100 µM each time.

Turning to `N.N.N.N.O=NN1CCCCCC1(P(=O)([O-])[O-])P(=O)([O-])[O-].[Pt+4].[Pt+4]`, the GI50 in the assay with HOP-62 NSCLC, with M14 melanoma, in the assay with ACHN renal, in the assay on NCI-H23 lung, with HCT-116 colon and with KM12 colon was over 100 µM in each case. For the same compound, the GI50 with SF-539 CNS, with RXF 393 renal and in the assay with SK-OV-3 ovarian was over 100 µM in each case. Also, the TGI in the assay with HOP-62 NSCLC, in the assay on M14 melanoma, in the assay on ACHN renal, in the assay with NCI-H23 lung, in the assay on HCT-116 colon and with KM12 colon was over 100 µM in each case. Besides, the TGI in the assay with SF-539 CNS, in the assay on RXF 393 renal and with SK-OV-3 ovarian was over 100 µM in each case.

On to `COC(=O)NC1(NC(=O)OC)NC(=O)c2cc(OC)c(OC)cc2N1`, for which the TGI in the assay on HOP-62 NSCLC, in the assay with M14 melanoma, in the assay on NCI/ADR-RES ovarian, in the assay on ACHN renal, in the assay with NCI-H23 lung and in the assay with HCT-116 colon was over 100 µM each time. For the same compound, the figures for the TGI in the assay on KM12 colon and in the assay on SF-539 CNS were over 100 µM and 60.8 µM, respectively.

As to `COc1cccc(NC(=O)C(C)(C)C)c1C=O`, the TGI with HOP-62 NSCLC, with M14 melanoma, with ACHN renal, in the assay on NCI-H23 lung, with HCT-116 colon and in the assay with KM12 colon was over 100 µM in each case. In addition, the TGI in the assay on SF-539 CNS and with SK-OV-3 ovarian was over 100 µM each time.

Turning to `CC1=C(C(=O)Nc2ccccc2)C(c2ccc([N+](=O)[O-])cc2)C(C(=O)Nc2ccccc2)=C(C)N1`, the TGI with HOP-62 NSCLC is over 100 µM; in the assay on M14 melanoma, 41.8 µM; in the assay on ACHN renal, over 100 µM; in the assay with NCI-H23 lung, 64.7 µM; with HCT-116 colon, 37.2 µM; in the assay with KM12 colon, 34.8 µM. Besides, the TGI with SF-539 CNS worked out at 44.9 µM; in the assay with RXF 393 renal, 46.2 µM.

`O=C(NCCO)c1cc2c(cn1)[nH]c1ccccc12`: the TGI in the assay on HOP-62 NSCLC is 40.1 µM; in the assay on M14 melanoma it was over 100 µM; in the assay on ACHN renal, over 100 µM; in the assay with NCI-H23 lung, over 100 µM; in the assay with HCT-116 colon, over 100 µM; in the assay on KM12 colon it was over 100 µM. Moreover, the TGI in the assay with SF-539 CNS, in the assay with RXF 393 renal and in the assay on SK-OV-3 ovarian was over 100 µM each time.

As to `C=CCCCn1ccc2ccccc21`, the TGI with HOP-62 NSCLC, in the assay with M14 melanoma, with ACHN renal, with NCI-H23 lung, in the assay with HCT-116 colon and in the assay with KM12 colon was over 100 µM throughout. Besides, the TGI in the assay on SF-539 CNS, with RXF 393 renal and in the assay with SK-OV-3 ovarian was over 100 µM each time.

Take `c1ccc(N=c2snc3scc(-c4ccccc4)n23)cc1`: the TGI in the assay with HOP-62 NSCLC is over 100 µM; in the assay with M14 melanoma, 96.2 µM; in the assay with ACHN renal, over 100 µM; in the assay with NCI-H23 lung it was over 100 µM; with KM12 colon it was over 100 µM; with SF-539 CNS, over 100 µM. Further, the TGI in the assay with RXF 393 renal and in the assay on SK-OV-3 ovarian was over 100 µM throughout.

Regarding `CCCCCCCCCCCCCCCCOCC(CN(C)CCN(C)C)OCCCCCCCCCCCCCCCC` (stereo not given), the TGI in the assay on HOP-62 NSCLC, in the assay on M14 melanoma, in the assay on ACHN renal, in the assay with NCI-H23 lung, with HCT-116 colon and in the assay with KM12 colon was over 100 µM each time. In addition, the TGI in the assay on RXF 393 renal and with SK-OV-3 ovarian was over 100 µM throughout.

`O=C(O)C1=C(C(=O)Nc2ccccc2)C2C=CC1C2` (stereo not given): the TGI in the assay on HOP-62 NSCLC, with M14 melanoma, in the assay on ACHN renal, in the assay with NCI-H23 lung, with HCT-116 colon and with KM12 colon was over 100 µM throughout. Further, the TGI in the assay with SF-539 CNS, with RXF 393 renal and in the assay on SK-OV-3 ovarian was over 100 µM in each case.

Regarding `CC(=O)[O-].CC(=O)[O-].O=C(N/N=C/c1cc(Cl)cc(Cl)c1O)c1ccncc1.[Ni+2]`, the TGI with HOP-62 NSCLC, in the assay on M14 melanoma, in the assay with ACHN renal, in the assay on NCI-H23 lung, with HCT-116 colon and with KM12 colon was over 100 µM in each case. Also, the TGI with SF-539 CNS, in the assay on RXF 393 renal and in the assay with SK-OV-3 ovarian was over 100 µM each time.

For the compound `Cc1ccc(-n2c3nc(=O)n(C)c(=O)c-3nc3ccccc32)cc1`, the TGI was over 100 µM in the assay on HOP-62 NSCLC; 32.7 µM with M14 melanoma; 49.2 µM in the assay with ACHN renal; 11.8 µM with NCI-H23 lung; 61.3 µM in the assay with HCT-116 colon; over 100 µM with KM12 colon. Moreover, the TGI in the assay with SF-539 CNS, with RXF 393 renal and in the assay with SK-OV-3 ovarian was over 100 µM each time.

As for `CC1=C(C(=O)Nc2ccccc2C)C(c2ccc(C3C(C(=O)Nc4ccccc4C)=C(C)NC(C)=C3C(=O)Nc3ccccc3C)cc2)C(C(=O)Nc2ccccc2C)=C(C)N1`, the TGI in the assay on HOP-62 NSCLC amounted to 42.1 µM; in the assay on M14 melanoma, 8.23 µM; in the assay with ACHN renal, 16 µM; with NCI-H23 lung, 9.6 µM; in the assay with HCT-116 colon, 7.17 µM; in the assay with KM12 colon, 4.75 µM. The figures for the TGI in the assay with SF-539 CNS, with RXF 393 renal and in the assay on SK-OV-3 ovarian were 8.57 µM, 17.6 µM and 28.8 µM, respectively.

`O=C1Nc2cc(Cl)ccc2N=CC1NC(=O)C(c1ccccc1)c1ccccc1Cl` (stereo not given): the TGI in the assay with HOP-62 NSCLC, in the assay on M14 melanoma, with ACHN renal, with NCI-H23 lung, in the assay with HCT-116 colon and with KM12 colon was over 100 µM each time. In addition, the TGI in the assay on SF-539 CNS, in the assay on RXF 393 renal and in the assay with SK-OV-3 ovarian was over 100 µM in each case.

The TGI is the concentration at which net growth stops. Read a low TGI as more potent growth arrest. The GI50 is the concentration giving 50% growth inhibition.
